According to publication PMC5271370, “A High-Content Assay Enables the Automated Screening and Identification of Small Molecules with Specific ALDH1A1-Inhibitory Activity” (PLoS ONE, 2017):
Read-outs that look alike come from different tables or passages of the source.

Legend:
Human ALDH1A1 = biological target: T1, Human ALDH1A1 (Homo sapiens, UniProt P00352); test: 1,536-well enzymatic assay (NADH fluorescence), ALDH1A1; format: biochemical
T1 construct: made in house
T1 sequence (P00352 1-501): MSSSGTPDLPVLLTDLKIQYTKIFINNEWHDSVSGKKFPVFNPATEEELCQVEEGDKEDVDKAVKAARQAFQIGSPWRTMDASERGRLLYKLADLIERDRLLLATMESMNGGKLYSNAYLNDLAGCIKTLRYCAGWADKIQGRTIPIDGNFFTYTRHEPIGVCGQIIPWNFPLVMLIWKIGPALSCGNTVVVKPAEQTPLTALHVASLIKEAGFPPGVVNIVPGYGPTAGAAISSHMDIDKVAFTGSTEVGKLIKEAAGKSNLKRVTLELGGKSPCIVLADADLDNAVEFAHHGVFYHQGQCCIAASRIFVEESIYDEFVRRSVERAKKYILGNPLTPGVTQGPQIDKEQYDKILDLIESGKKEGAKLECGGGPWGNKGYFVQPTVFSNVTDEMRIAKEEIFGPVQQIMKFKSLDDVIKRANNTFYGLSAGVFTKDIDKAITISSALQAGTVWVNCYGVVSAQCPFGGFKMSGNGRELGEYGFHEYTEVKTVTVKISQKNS
Excerpt: To validate our optimized assay, we assembled a set of 20 previously reported ALDH inhibitors, with varying degrees of target specificity (Table 1 and S4 Fig). […] Briefly, the assay measures the dehydrogenase activity of recombinant human ALDH1A1, ALDH1A2, ALDH1A3, ALDH2 or ALDH3A1 using NAD(P)^+ and either propionaldehyde or benzaldehyde as substrates. An orthogonal resorufin-based assay format was also run with isolated ALDH1A1 to rule out potential false positives due to intrinsic compound fluorescence.
Human ALDH1A1 and ALDH3A1 were expressed and purified as described elsewhere. Human ALDH2 was purchased from Abcam (ab87415). Human ALDH1A2 and ALDH1A3 were purchased from MyBioSource (MBS1005929; San Diego, CA) and ThermoFisher (11636H07E50), respectively. The inhibitory activity of compounds against ALDHs was measured according to protocols described previously. Briefly, 3 μL of enzyme (final concentrations of 20 nM for ALDH1A1, 50 nM for ALDH1A2, 50 nM for ALDH1A3, 75 nM for ALDH2 and 5 nM for ALDH3A1) in assay buffer (100 mM HEPES pH 7.5 with 0.01% Tween 20) were dispensed into a 1,536-well solid-bottom black plate (Greiner Bio One, Monroe, NC). […] Samples were incubated (room temperature, protected from light) for 15 minutes followed by a 1 μL substrate addition of NAD^+ and Propionaldehyde (final concentrations of 1 mM and 80 μM, respectively) for ALDH1A1, 1A2, 1A3, and ALDH2 or NADP^+ and benzaldehyde (final concentrations of 1 mM and 200 μM, respectively) for ALDH3A1. Plates were centrifuged at 1,000 rpm for 15 seconds, then read in kinetic mode on a ViewLux High-throughput CCD imager (PerkinElmer, Waltham, MA) equipped with standard UV fluorescence optics (340 nm excitation, 450 nm emission) for 5 (ALDH1A1, ALDH1A2, ALDH2, ALDH3A1) or 30 (ALDH1A3) minutes. The change in fluorescence intensity over the 5- or 30-minute reaction period was normalized against no-inhibitor and no-enzyme controls and the resulting percent inhibition data were fitted to a 4-parameter Hill equation. Bay-11 7085 was used as intraplate control. To account for artifacts due to intrinsic compound fluorescence in the above spectrum, compounds were also tested in an orthogonal resorufin assay format with optics of excitation 525 nm/emission 598 nm as described before. The same parameters as the NADH assay were used for the resorufin assay, with the addition of (final) 133 μg/mL diaphorase and 37 μM resazurin to the assay solution. Same controls were used in both formats.

ALDH2 = conditions: reported ALDH target 2; read-out: Reported Biochemical IC50, ALDH2; cited from earlier work
[1] = validation set, 20 nM enzyme, NAD+ and propionaldehyde, read-out: Biochemical IC50 ALDH1A1
[2] = hits of dual cell-based screen (Table 2), read-out: Biochemical IC50 ALDH1A1

Row | Molecule | IC50 (Human ALDH1A1; [1]) | IC50 (ALDH2) | other results
1 | CC(C)N(C(=O)CCl)c1ccccc1 [Propachlor] | – | – | IC50 (Human ALDH1A1; [2]): 10 nM
2 | COc1ccc(C(=O)CCN(C)C)cc1F [Aldi-2] | 150 nM | 6400 nM | –
3 | CC(C)(C)c1ccc(S(=O)(=O)/C=C/C#N)cc1 [Bay-11-7085] | 90 nM | 34 nM | –
4 | CCOc1ccc(NCC(=O)Nc2ccc(Cl)cc2C)cc1 [CID 725345] | 770 nM | – | –
5 | O=c1c(-c2ccc(O)cc2)coc2cc(O[C@@H]3O[C@H](CO)[C@@H](O)[C@H](O)[C@H]3O)ccc12 [Daidzin] | – | 290 nM | –
6 | CCN(CC)c1ccc(C=O)cc1 [DEAB, 4-N,N-diethylaminobenzaldehyde] | – | 160 nM | –
7 | C[S+](=O)([O-])c1ccc(Cn2c3c(c4cc(F)cc(F)c42)CCCC3CC(=O)O)cc1 [L-670596] | – | – | IC50 (Human ALDH1A1; [2]): 250 nM
8 | Cc1cc2c(C(C)C)c(O)c(O)c(C=O)c2c(O)c1-c1c(C)cc2c(C(C)C)c(O)c(O)c(C=O)c2c1O [Gossypol] | – | – | IC50 (Human ALDH1A1; Biochemical IC50 ALDH1A1, validation set, 20 nM enzyme, NAD+ and propionaldehyde): 25600 nM

The next lines start with results.

Row | IC50 (Human ALDH1A1; [1]) | Molecule | IC50 (ALDH2) | other results
9 | 10800 nM | CC(C)=CCCC(C)=CC=O (mixture of isomers) [Citral] | – | –
10 | 290 nM | COc1cccc2cc(C(=O)CC3(O)C(=O)N(Cc4ccccc4)c4ccccc43)c(=O)oc12 (stereo not shown) [CID 2929292] | – | –
11 | 19100 nM | CVT-10216 | 29 nM | –
12 | 40500 nM | Nc1ccccc1C(=O)CC(N)C(=O)O (stereo not shown) [Kynurenine] | – | –
13 | 10 nM | O=C1Nc2ccccc2C1=O [indoline-2,3-dione] | – | –
